The target in experiment [1] is T1, yeast Pgi1 (phosphoglucose isomerase) (Saccharomyces cerevisiae, UniProt P12709).
T1 construct: purchased Sigma Aldrich (St. Louis, MO)
The experiment can be described thus: Inhibition of purified Pgi1 (phosphoglucose isomerase) activity, LC/MS detection of glucose-6-phosphate. Type of experiment: biochemical. The conditions noted are these: for Inhibition of Pgi1 (in words): 0.6 mM fructose-6-phosphate, 0.05-5 mM polyol phosphate. How it is done:
Purified Pgi1's activity was assayed in the presence of 0.6 mM fructose-6-phosphate, 5 mM Mg^2+ (pH=7.0, 30° C.) and a range of 0.05-5 mM of sorbitol-6P or ribitol-5P by monitoring the appearance of glucose-6-phosphate. The y axis represents relative Pgi1 activity (mean±range of N=2 replicates).
FIGS. 13A-13C show polyol phosphates inhibit phosphoglucose isomerase in vitro and in growing yeast. (FIG. 13A). Activity of the purified Pgi1 was assayed in the presence of 0.6 mM fructose-6-phosphate (substrate), 5 mM Mg2+ (pH=7.0, 30° C.) and a range of 0.05-5 mM of sorbitol-6P or ribitol-5P by monitoring the appearance of glucose-6-phosphate. The x-axis represents polyol phosphate concentration and the y-axis represents relative Pgi1 activity (mean±range of N=2 replicates). (FIG. 13B). […] This experiment is used to define a characteristic low-Pgi metabolome. (FIG. 13C). Metabolome profiling of pyp1Δ (dark red) and wild type (blue) cells at t=1 h after switching from trehalose+ribitol to glucose+ribitol.
For the determination of IC50 of sorbitol-6-phosphate and ribitol-5-phosphate on phosphoglucose isomerase, yeast Pgi1 was purchased from Sigma Aldrich (St. Louis, MO). Phosphoglucose isomerase activity was determined by adding fructose-6-phosphate and monitoring the appearance of glucose-6-phosphate using LC/MS. It was determined that the LC/MS-based assay is consistently more sensitive and accurate than the colometric-based assay, which involves coupling the Pgi1 activity with glucose-6-phosphate dehydrogenase activity and monitoring the appearance of NADH. The reaction mixture contained 100 mM Tris-HCl at a pH of 8.0, 10 mM MgCl2, 0.6 mM fructose-6-phosphate (concentration in cells grown exponentially on glucose), and a range of sorbitol-6-phosphate and ribitol-5-phosphate concentrations (0.05 to 5 mM). The resulting data were again fitted to the Hill equation using the GraphPad Prism Software.
To measure the inhibition of Pgi by sorbitol-6-phosphate and ribitol-5-phosphate, yeast Pgi1 was purchased from Sigma Aldrich (St. Louis, MO). Phosphoglucose isomerase activity was determined by adding fructose-6-phosphate and monitoring the appearance of glucose-6-phosphate using LC/MS. We found such LC/MS based assay is consistently more sensitive and accurate than the more typical colorimetric-based assay, which involves coupling the Pgi1 activity with glucose-6-phosphate dehydrogenase activity and monitoring the appearance of NADH. The reaction mixture contained 100 mM Tris-HCl at pH 8.0, 10 mM MgCl2, 0.6 mM fructose-6-phosphate (the physiological concentration in cells grown exponentially on glucose), and a range of sorbitol-6-phosphate and ribitol-5-phosphate concentrations (0.05 to 5 mM). The resulting data were fitted to the Hill equation using the GraphPad Prism Software.

The subject of the next experiment is pyp1Δ cells. Kind of experiment: Growth rate of pyp1Δ yeast in the presence of ribitol. Type of experiment: cell-based, Saccharomyces cerevisiae. From the text:
(§1) Wild type yeast and pyp1Δ cells growing on 1% trehalose in the absence or presence of 1% ribitol (upper panel) were switched to media with trehalose substituted by 1% glucose (lower panel). The y axis represents ratio of growth rates (mean±range of N=2 replicates) of cells growing in the presence of ribitol vs. cells growing in the absence of ribitol. […] The x axis represents hours after the switch and the y axis represents absolute intracellular concentration (mean±range of N=2 replicates). […] The x axis represents different growth rates and the y axis represents relative expression level of PYP1. […] The y axis represents absolute intracellular concentration, except for the panel displaying the NADPH/NADP^+ ratio (mean±range of N=2 replicates).
(§2) (FIG. 12A). Growth of wild type and pyp1Δ yeast on sorbitol. Yeast cells grown on YPD medium were switched to minimal media containing 2% sorbitol as the carbon source. The x-axis represents days after the switch and the y-axis represents optical density (A600). (FIG. 12B). Absolute concentration of sorbitol-6-phosphate in wild type and pyp1Δ cells in the experiment shown in (A). The x-axis represents days after the switch and the y-axis represents absolute intracellular concentration (mean±range, N=2). (FIG. 12C). Growth of wild type and pyp1Δ cells on glycerol and mannitol. […]

The next experiment concerns the target T2, Pyp1 (Saccharomyces cerevisiae, UniProt P53981).
T2 construct: made in house; host or cells: E. coli BL21 (DE3) Gold
The experiment can be described thus: Phosphatase activity of purified recombinant Pyp1 against phosphorylated substrates. Type of experiment: biochemical, S. cerevisiae. Conditions: incubation with purified Pyp1, 0.5 mM substrate. How it is done: Purified Pyp1 phosphatase activity was assayed in the presence of 0.5 mM substrate and 5 mM Mg^2+ (pH=7.0, 30° C.) by monitoring the appearance of free phosphate or the polyol. The y axis represents specific phosphatase activity (μmol product made per mg of protein per minute) (mean±range of N=2 replicates).
Purified Pyp1's phosphatase activity was assayed against 0.5 mM ribitol-5P by LC-MS. […] (FIG. 10B). Pyp1's D-polyol phosphatase activity was measured in the presence of 0.5 mM substrate and 5 mM Mg^2+ (pH=7.0, 30° C.) by monitoring the appearance of phosphate or the polyol. The y-axis represents specific phosphatase activity (moles product per min per mg of protein) (mean±range, N=2).
In the initial screening of Pyp1's phosphatase activity, the gene encoding Pyp1 was amplified by PCR using S. cerevisiae genomic DNA. The amplified fragments were cloned into a modified pET15b vector (Novagen, Darmstadt, Germany) and overexpressed in the E. coli BL21(DE3) Gold strain (Stratagene, La Jolla, California) as previously described by Kuznetsova et al., J Biol Chem 2010, 285, 21049. The recombinant proteins were purified using metal ion affinity chromatography on nickel affinity resin (Qiagen, Hilden, Germany) to high homogeneity and stored at −80° C. Purified Pyp1 was screened for the presence of phosphatase activity against the general phosphatase substrate p-nitrophenyl phosphate (pNPP) and 90 phosphorylated metabolites as described previously by Kuznetsova et al., J Biol Chem 2006, 281, 36149. […]
Briefly, the gene encoding Pyp1 was amplified by PCR using S. cerevisiae genomic DNA. The amplified fragments were cloned into a modified pET15b vector (Novagen, Darmstadt, Germany) and overexpressed in the E. coli BL21 (DE3) Gold strain (Stratagene, La Jolla, California) as previously described (Kuznetsova et al., 2010). The recombinant protein was purified using metal ion affinity chromatography on nickel chelate resin (Qiagen, Hilden, Germany) to high homogeneity and stored at −80° C. Purified Pyp1 was then screened for phosphatase activity as described previously (Kuznetsova et al., 2006).

In another experiment the test system is wild type yeast cells. The experiment can be described thus: Growth rate of wild type yeast in the presence of ribitol. In kind it is cell-based, Saccharomyces cerevisiae. Conditions: 1% trehalose +/- 1% ribitol.
Excerpt: as §1, §2

“Also recorded” adds a separate entry of the source. A value given as a limit tells only on which side of the number the result lay.

As a reminder, the IC50 is the concentration needed to halve the response being measured. Read a low IC50 as greater potency in that assay.

T2 sequence (P53981 whole entry): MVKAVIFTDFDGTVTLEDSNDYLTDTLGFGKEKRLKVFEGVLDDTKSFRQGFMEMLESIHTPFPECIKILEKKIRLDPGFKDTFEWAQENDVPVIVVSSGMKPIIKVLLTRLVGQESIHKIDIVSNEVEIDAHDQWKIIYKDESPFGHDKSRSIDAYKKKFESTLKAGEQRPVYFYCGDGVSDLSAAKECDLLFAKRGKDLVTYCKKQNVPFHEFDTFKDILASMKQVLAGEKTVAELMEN
T1 sequence (P12709 2-554 limits assumed): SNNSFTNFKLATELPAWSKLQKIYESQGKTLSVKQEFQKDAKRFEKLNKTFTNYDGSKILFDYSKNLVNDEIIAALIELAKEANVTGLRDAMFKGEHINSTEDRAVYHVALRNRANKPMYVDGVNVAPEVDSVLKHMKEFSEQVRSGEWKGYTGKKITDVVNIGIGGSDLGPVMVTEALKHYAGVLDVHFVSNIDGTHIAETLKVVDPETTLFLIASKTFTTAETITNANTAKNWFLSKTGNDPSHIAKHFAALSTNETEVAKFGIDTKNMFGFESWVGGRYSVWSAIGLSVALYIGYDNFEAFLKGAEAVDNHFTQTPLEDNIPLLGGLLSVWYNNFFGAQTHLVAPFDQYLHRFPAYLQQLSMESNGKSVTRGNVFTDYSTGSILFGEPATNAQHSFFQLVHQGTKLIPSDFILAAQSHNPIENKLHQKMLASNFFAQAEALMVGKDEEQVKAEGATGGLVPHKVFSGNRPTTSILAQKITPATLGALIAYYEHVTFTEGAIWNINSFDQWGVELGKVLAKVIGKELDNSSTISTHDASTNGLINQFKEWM

Turning to `O=P(O)(O)OC[C@@H](O)[C@@H](O)[C@@H](O)CO` [ribitol-5P, ribitol-5-phosphate], the “Inhibition of Pgi1 (in words)” value in experiment [1] is “did not inhibit Pgi1 as strongly as sorbitol-6P; also recorded: less potently”. For the same molecule, the “Lower growth rate in pyp1Δ cells after carbon upshift” value in the experiment with pyp1Δ cells (switched from trehalose + ribitol to glucose plus ribitol) is ~50%. Further, on Pyp1, the “Pyp1 phosphatase activity on substrate (in words)” value (“Pyp1 phosphatase activity” for short) is “depletion”.
As for `O=P(O)(O)OCC(O)CO` (racemic) [racemic glycerol-3P], the “Pyp1 phosphatase activity” value on Pyp1 is listed as “hydrolysis”.
Take `O=P(O)(O)OC[C@H](O)CO` [glycerol-3P, L-glycerol-3-phosphate]: at Pyp1 (listed as (L)-glycerol-3P), the “Pyp1 phosphatase activity” value is “very low activity”.
Turning to `OC[C@@H](O)[C@@H](O)[C@@H](O)CO` [ribitol], the “Decrease of the growth rate of pyp1Δ cells” value in the experiment with pyp1Δ cells (1% trehalose +/- 1% ribitol) is ~20%. The “Effect on growth rate of wild type cells growing on trehalose” value in the experiment on wild type yeast cells is listed as “does not affect the growth rate; also recorded: without impacting growth rate”.
Regarding `O=C[C@H](O)[C@H](O)COP(=O)(O)O` [erythrose-4P], the “Pyp1 phosphatase activity” value on Pyp1 was “hydrolysis”.
Turning to `O=P(O)(O)OC[C@@H](O)[C@@H](O)[C@H](O)[C@@H](O)CO` [sorbitol-6P, sorbitol-6-phosphate], the “Inhibition of Pgi1 (in words)” value in experiment [1] is “inhibit”. Besides, the inhibition at 1000 µM in experiment [1] (1 mM sorbitol-6P added, read-out: Pgi1 activity inhibited) was > 85%. The half-maximal inhibitory concentration (IC50) in experiment [1] (purified Pgi1, 0.6 mM fructose-6-phosphate, inhibitor range 0.05-5 mM) was ~50 µM. Also, the “Pyp1 phosphatase activity” value at Pyp1 is listed as “depletion; also recorded: hydrolysis”.
`O=P(O)(O)OCC(O)CO` [glycerol-1P, D-glycerol-3-phosphate]: the “Pyp1 phosphatase activity” value at Pyp1 is on record as “depletion”; at Pyp1 (listed as Glycerol-1-phosphate) it was “in vitro substrate”.
On to `O=C(CO)[C@@H](O)[C@H](O)[C@H](O)[C@H](O)[C@H](O)COP(=O)(O)O` [O8P, D-Glycero-D-Altro-Octulose-8-phosphate], for which the “Pyp1 phosphatase activity” value on Pyp1 is reported as “No detectable phosphatase activity”; at Pyp1 (listed as octulose-8P) it was “no detectable phosphatase activity”.
